Source: PMC7854383, “Cellular Uptake of Psychostimulants – Are High- and Low-Affinity Organic Cation Transporters Drug Traffickers?” (Frontiers in Pharmacology, 2021)
Changes are numbered by the printed parent chain. Where “and” joins values, the source holds several entries; their conditions need not be identical. Equal values may be shown once.

Key:
OCT1 [1] = molecular target: T1, OCT1 (Homo sapiens, UniProt O15245); experiment: Inhibition of mescaline uptake by OCT1; assay type: in vitro ADME; design: expressed in transfected cells; settings: 1 mM MPP^+; compared with empty vector-transfected cells
T1 sequence (O15245 1-554): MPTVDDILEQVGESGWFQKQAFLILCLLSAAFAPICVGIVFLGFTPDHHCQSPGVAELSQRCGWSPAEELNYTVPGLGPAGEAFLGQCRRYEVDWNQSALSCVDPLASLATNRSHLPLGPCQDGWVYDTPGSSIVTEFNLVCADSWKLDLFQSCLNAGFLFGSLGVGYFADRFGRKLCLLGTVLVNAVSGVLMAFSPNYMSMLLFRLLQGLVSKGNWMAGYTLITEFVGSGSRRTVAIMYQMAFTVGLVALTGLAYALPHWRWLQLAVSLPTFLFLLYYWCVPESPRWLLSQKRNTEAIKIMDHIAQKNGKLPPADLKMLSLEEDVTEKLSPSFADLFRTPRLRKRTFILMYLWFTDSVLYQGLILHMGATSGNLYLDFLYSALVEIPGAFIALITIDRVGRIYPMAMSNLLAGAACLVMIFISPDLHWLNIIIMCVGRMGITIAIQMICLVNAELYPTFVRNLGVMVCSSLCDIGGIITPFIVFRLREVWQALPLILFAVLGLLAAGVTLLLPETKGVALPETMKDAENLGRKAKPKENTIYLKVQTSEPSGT

DAT [2] = molecular target: T2, DAT (Homo sapiens, UniProt Q01959); experiment: Screening of cellular uptake at 1 µM, DAT-overexpressing HEK293 cells over empty vector control cells; settings: 2 min
Method: (§3) The HEK293 cells were cultered in DMEM medium supplemented with 10% (v/v) fetal bovine serum as well as penicillin (100 U/ml) and streptomycin (100 μg/ml) obtained from Thermo Fisher Scientific (Darmstadt, Germany). Cells were seeded on 12-well plates coated with poly-D-lysine (Sigma-Aldrich, Taufkirchen, Germany) 48 h before the transport experiments and incubated at 37°C, 95% relative humidity, and 5% CO2. […] All cell lines were washed with 37°C HBSS+ and subsequently incubated with the pre-warmed substrate in HBSS+ at 37°C. The time points for measuring substrate uptake were 1 min for MATE2-K and 2 min for the other SLCs. […] The reaction was stopped by adding ice-cold HBSS+, and the cells were washed twice with ice-cold HBSS+ before lysis with 80% acetonitrile (LGC Standards, Wesel, Germany) including an internal standard. Subsequently, the intracellular substrate accumulation was determined using LC-MS/MS.
(§4) Intracellular accumulation was measured by HPLC-MS/MS using a Shimadzu Nexera HPLC system with a LC-30AD pump, a SIL-30AC autosampler, a CTO-20AC column oven, and a CBM-20A controller (Shimadzu, Kyoto, Japan). […] Peak integration and quantification of the analytes was done using the Analyst software (Version 1.6.2, AB SCIEX, Darmstadt, Germany) and determined by simultaneous measurement of standard curves with known concentrations.

SERT = SERT (Homo sapiens, UniProt P31645); experiment: Screening of cellular uptake at 1 µM, SERT-overexpressing HEK293 cells over empty vector control cells; assay type: in vitro ADME; settings: 2 min
OCT1*6 (M420del, C88R) = molecular target: T3, OCT1*6 (M420del, C88R) (Homo sapiens, UniProt O15245, C88R/DEL420-420)
T3 sequence (O15245 with tags, fused parts or gaps C88R/DEL420-420): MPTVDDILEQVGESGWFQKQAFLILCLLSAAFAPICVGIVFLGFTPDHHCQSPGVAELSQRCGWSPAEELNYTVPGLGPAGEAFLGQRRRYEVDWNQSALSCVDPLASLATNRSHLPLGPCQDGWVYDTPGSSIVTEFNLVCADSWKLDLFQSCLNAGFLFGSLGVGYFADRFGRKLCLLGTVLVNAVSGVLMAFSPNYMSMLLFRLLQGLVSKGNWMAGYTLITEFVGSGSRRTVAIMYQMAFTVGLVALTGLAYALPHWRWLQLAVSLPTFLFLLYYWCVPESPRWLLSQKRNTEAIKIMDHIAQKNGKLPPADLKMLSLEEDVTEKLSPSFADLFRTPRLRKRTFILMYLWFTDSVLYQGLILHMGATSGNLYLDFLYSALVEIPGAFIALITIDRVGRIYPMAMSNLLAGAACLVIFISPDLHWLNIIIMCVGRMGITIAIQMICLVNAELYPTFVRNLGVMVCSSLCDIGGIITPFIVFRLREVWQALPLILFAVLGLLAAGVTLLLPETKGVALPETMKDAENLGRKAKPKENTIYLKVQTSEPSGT
Method: (§5) The cells were kept in culture for no more than 30 passages.
The HEK293 cells were cultered in DMEM medium supplemented with 10% (v/v) fetal bovine serum as well as penicillin (100 U/ml) and streptomycin (100 μg/ml) obtained from Thermo Fisher Scientific (Darmstadt, Germany). Cells were seeded on 12-well plates coated with poly-D-lysine (Sigma-Aldrich, Taufkirchen, Germany) 48 h before the transport experiments and incubated at 37°C, 95% relative humidity, and 5% CO2. Cell lines overexpressing MATE2-K were incubated with 30 mM NH4Cl in HBSS+ (10 mM HEPES in HBSS, pH 7.4; Thermo Fisher Scientific, Darmstadt, Germany) for 30 min prior to the assay to invert the direction of transport. All cell lines were washed with 37°C HBSS+ and subsequently incubated with the pre-warmed substrate in HBSS+ at 37°C. The time points for measuring substrate uptake were 1 min for MATE2-K and 2 min for the other SLCs. […] It was assumed to be linear for the other transporters as well, based on previous experience with these expression systems. […] Subsequently, the intracellular substrate accumulation was determined using LC-MS/MS.
as §4
For the screenings, cellular uptake measured in cell lines overexpressing the respective transporter was divided by the uptake measured in an empty vector control cell line to calculate normalised ratios to enable comparisons between test compounds. For studying transport kinetics, the net transport mediated by the overexpressed transporters was calculated by subtracting the cellular uptake measured in an empty vector control cell line from the uptake in cell lines overexpressing the respective transporter. […]

OCT1 [3] = molecular target: T1, OCT1; experiment: Screening of cellular uptake at 1 µM, OCT1-overexpressing HEK293 cells over empty vector control cells; settings: 2 min
From the text: (§1) Koepsell and Gorbulev (University of Würzburg, Germany).
(§2) Eighteen psychostimulants and hallucinogens were initially screened for their potential to be substrates for different polyspecific OCTs and high-affinity monoamine neurotransmitter transporters (Figure 3), as well as for the efflux transporter MATE2-K (Supplementary Figure S1).

OCT3 = molecular target: T4, OCT3 (Homo sapiens, UniProt O75751); experiment: Screening of cellular uptake at 1 µM, OCT3-overexpressing HEK293 cells over empty vector control cells; assay type: in vitro ADME; settings: 2 min
T4 construct: Koepsell and Gorbulev (University of Würzburg); host or cells: HEK293
T4 sequence (O75751 1-556): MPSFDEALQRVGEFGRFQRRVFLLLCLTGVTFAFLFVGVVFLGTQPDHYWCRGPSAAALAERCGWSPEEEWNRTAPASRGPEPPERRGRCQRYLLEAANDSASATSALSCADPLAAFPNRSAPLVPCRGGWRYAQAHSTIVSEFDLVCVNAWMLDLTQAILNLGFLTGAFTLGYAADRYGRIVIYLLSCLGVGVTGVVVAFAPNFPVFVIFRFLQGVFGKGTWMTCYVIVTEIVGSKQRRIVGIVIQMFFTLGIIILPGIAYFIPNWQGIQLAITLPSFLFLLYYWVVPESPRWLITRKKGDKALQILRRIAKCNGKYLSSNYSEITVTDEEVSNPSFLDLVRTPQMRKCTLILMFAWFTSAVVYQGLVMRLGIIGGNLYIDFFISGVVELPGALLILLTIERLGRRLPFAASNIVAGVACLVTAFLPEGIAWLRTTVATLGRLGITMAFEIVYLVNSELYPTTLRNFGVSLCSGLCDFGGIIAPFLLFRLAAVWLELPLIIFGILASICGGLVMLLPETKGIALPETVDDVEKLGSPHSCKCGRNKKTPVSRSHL
From the text: as §1, §2

OCT1*1 (WT) = molecular target: T5, OCT1*1 (WT) (Homo sapiens, UniProt O15245); settings: net transport, 2 min
T5 sequence (O15245 1-554): T1 sequence (O15245 1-554)
Method: as §5
(§6) The HEK293 cells were cultered in DMEM medium supplemented with 10% (v/v) fetal bovine serum as well as penicillin (100 U/ml) and streptomycin (100 μg/ml) obtained from Thermo Fisher Scientific (Darmstadt, Germany). Cells were seeded on 12-well plates coated with poly-D-lysine (Sigma-Aldrich, Taufkirchen, Germany) 48 h before the transport experiments and incubated at 37°C, 95% relative humidity, and 5% CO2. Cell lines overexpressing MATE2-K were incubated with 30 mM NH4Cl in HBSS+ (10 mM HEPES in HBSS, pH 7.4; Thermo Fisher Scientific, Darmstadt, Germany) for 30 min prior to the assay to invert the direction of transport. All cell lines were washed with 37°C HBSS+ and subsequently incubated with the pre-warmed substrate in HBSS+ at 37°C. […] Subsequently, the intracellular substrate accumulation was determined using LC-MS/MS.
(§7) Intracellular accumulation was measured by HPLC-MS/MS using a Shimadzu Nexera HPLC system with a LC-30AD pump, a SIL-30AC autosampler, a CTO-20AC column oven, and a CBM-20A controller (Shimadzu, Kyoto, Japan). […] Peak integration and quantification of the analytes was done using the Analyst software (Version 1.6.2, AB SCIEX, Darmstadt, Germany) and determined by simultaneous measurement of standard curves with known concentrations. […]

MATE2-K = molecular target: T6, MATE2-K (Homo sapiens, UniProt Q86VL8); experiment: Screening of cellular uptake at 1 µM, MATE2-K-overexpressing HEK293 cells over empty vector control cells; assay type: in vitro ADME; settings: 1 min
T6 construct: expressed in transfected cells
From the text: as §1, §2

NET = NET (Homo sapiens, UniProt P23975); experiment: Screening of cellular uptake at 1 µM, NET-overexpressing HEK293 cells over empty vector control cells; settings: 2 min
Method: as §3, §4

OCT1*3 (R61C) = molecular target: T7, OCT1*3 (R61C) (Homo sapiens, UniProt O15245, R61C)
T7 sequence (O15245 1-554 R61C): T1 sequence (O15245 1-554) with R61C
Method: as §5, §6, §7

[4] = four healthy volunteers; ref Toennes and Kauert, 2002; www.dosing.de and www.drugbank.ca; cited from earlier work
DAT [5] = molecular target: T2, DAT; experiment: Concentration-dependent transport by DAT in HEK293 cells; settings: DAT versus NET
OCT2 = molecular target: T8, OCT2 (Homo sapiens, UniProt O15244); experiment: Screening of cellular uptake at 1 µM, OCT2-overexpressing HEK293 cells over empty vector control cells; settings: 2 min
T8 sequence (O15244 1-555 S270A): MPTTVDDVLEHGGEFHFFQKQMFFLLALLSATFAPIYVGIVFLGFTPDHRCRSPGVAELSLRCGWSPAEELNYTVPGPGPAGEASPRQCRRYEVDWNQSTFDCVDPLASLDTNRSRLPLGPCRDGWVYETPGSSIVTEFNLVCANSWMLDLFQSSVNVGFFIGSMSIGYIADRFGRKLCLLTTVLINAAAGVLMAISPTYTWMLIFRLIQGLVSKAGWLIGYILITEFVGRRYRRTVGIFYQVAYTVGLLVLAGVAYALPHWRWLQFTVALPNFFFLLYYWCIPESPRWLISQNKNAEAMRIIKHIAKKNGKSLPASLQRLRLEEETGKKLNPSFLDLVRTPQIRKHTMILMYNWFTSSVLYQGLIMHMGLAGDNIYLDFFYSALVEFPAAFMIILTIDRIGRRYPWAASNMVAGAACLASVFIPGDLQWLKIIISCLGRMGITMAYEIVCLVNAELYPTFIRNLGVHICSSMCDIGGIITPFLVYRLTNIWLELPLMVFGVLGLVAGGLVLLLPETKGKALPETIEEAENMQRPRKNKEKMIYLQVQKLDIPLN
From the text: as §1, §2

wild-type OCT2 = molecular target: T9, wild-type OCT2 (Homo sapiens, UniProt O15244); experiment: Concentration-dependent transport by wild-type OCT2 in HEK293 cells
T9 sequence (O15244 1-555 S270A): T8 sequence (O15244 1-555 S270A)

OCT2 variant A270S = molecular target: T10, OCT2 variant A270S (Homo sapiens, UniProt O15244); experiment: Concentration-dependent transport by OCT2 variant A270S in HEK293 cells
T10 sequence (O15244 1-555): T8 sequence (O15244 1-555 S270A) with A270S

T2 sequence (Q01959 whole entry): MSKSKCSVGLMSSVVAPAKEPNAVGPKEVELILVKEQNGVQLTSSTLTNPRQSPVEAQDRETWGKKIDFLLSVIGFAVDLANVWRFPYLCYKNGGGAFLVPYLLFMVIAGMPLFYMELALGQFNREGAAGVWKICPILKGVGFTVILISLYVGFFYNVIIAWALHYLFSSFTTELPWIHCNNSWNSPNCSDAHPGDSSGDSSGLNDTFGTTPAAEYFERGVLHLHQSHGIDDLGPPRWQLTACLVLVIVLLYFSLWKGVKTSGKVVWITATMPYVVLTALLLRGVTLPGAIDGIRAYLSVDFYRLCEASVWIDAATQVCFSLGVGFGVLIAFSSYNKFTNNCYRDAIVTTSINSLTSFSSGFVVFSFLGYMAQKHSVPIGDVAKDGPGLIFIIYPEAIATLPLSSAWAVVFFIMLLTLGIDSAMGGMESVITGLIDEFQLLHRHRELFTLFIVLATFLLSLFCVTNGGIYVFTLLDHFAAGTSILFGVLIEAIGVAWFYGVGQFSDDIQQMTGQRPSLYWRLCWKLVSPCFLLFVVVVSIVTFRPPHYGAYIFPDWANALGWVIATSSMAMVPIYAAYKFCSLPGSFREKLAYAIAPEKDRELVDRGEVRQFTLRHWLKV
Chain of NET (P23975 whole entry): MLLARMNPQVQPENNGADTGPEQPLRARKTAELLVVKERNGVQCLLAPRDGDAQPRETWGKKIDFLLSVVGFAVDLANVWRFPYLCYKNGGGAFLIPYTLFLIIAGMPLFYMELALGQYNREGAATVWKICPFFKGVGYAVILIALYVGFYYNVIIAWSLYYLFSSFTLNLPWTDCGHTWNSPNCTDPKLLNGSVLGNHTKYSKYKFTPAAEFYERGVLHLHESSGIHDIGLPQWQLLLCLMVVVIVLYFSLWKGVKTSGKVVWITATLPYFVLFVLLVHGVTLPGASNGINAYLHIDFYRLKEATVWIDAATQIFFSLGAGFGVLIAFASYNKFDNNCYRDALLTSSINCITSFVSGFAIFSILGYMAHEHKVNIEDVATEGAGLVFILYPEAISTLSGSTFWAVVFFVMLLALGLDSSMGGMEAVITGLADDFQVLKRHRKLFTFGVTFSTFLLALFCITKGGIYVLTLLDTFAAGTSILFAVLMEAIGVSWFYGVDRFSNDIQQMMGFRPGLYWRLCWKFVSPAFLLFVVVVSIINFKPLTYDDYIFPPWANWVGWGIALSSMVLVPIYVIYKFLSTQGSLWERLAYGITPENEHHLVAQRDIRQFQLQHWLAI
T6 sequence (Q86VL8 1-566 isoform Q86VL8-3): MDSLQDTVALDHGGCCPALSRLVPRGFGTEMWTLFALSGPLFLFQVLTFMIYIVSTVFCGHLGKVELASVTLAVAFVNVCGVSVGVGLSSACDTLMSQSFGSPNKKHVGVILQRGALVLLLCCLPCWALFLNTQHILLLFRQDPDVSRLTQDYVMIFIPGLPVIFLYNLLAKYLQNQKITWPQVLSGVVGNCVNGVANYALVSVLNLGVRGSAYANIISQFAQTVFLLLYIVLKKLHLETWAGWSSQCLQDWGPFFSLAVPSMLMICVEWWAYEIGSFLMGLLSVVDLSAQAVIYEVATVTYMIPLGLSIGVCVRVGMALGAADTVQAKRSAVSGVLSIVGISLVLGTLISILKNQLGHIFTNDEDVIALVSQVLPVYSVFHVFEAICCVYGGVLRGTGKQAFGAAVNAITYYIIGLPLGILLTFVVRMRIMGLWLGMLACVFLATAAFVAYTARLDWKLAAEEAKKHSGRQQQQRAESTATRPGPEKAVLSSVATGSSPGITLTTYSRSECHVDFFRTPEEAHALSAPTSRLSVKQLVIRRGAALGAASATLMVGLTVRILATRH
Chain of SERT (P31645 whole entry): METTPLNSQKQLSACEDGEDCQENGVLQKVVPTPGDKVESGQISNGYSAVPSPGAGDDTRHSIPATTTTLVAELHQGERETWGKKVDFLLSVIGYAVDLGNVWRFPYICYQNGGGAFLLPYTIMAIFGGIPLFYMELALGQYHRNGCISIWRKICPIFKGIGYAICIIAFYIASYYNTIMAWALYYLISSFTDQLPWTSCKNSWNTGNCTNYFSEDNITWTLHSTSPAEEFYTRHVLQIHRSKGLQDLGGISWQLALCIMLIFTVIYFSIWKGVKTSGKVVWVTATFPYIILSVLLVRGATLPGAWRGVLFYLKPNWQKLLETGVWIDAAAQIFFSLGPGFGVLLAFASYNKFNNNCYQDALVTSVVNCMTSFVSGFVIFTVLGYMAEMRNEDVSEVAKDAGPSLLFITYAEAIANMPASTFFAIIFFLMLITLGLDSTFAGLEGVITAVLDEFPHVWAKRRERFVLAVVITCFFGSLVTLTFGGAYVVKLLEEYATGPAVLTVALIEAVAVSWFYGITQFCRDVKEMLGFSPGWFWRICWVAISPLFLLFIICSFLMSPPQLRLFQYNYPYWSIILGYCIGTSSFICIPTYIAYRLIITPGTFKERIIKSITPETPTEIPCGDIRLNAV

SMILES	inhibition of mescaline uptake by OCT1 (OCT1 [1])	ratio of uptake in transporter-transfected cells over empty vector control cells (DAT [2])	ratio of uptake in transporter-transfected cells over empty vector control cells (SERT)	transport activity (OCT1*6 (M420del, C88R); OCT1*6)	Km (OCT1*6 (M420del, C88R); OCT1*6 (M420del, C88R))	vmax (OCT1*6 (M420del, C88R); OCT1*6 (M420del, C88R))	ratio of uptake in transporter-transfected cells over empty vector control cells (OCT1 [3])	ratio of uptake in transporter-transfected cells over empty vector control cells (OCT3)	vmax (OCT1*1 (WT))	ratio of uptake in transporter-transfected cells over empty vector control cells (MATE2-K)	ratio of uptake in transporter-transfected cells over empty vector control cells (NET)	vmax (OCT1*3 (R61C))	excreted unchanged in urine [4]	Km higher for DAT compared with NET (DAT [5]) [fold]	vmax higher for DAT compared with NET (DAT [5]) [fold]	ratio of uptake in transporter-transfected cells over empty vector control cells (OCT2)	vmax (wild-type OCT2; OCT2 WT)	Km at 2 min (wild-type OCT2; human, pH 7.4) [µM]	vmax (OCT2 variant A270S; OCT2 A270S)	Km at 2 min (OCT2 variant A270S; human, pH 7.4) [µM]
C[n+]1ccc(-c2ccccc2)cc1 [MPP^+, 1-methyl-4-phenylpyridinium]	completely inhibited																			
COc1cc(CCN)cc(OC)c1OC [Mescaline]		not transported much	not transported much	very low transport activity	Not determinable	Not determinable	more than 8 fold	not transported much	642 pmol × mg protein^−1 × min^−1 and 642 ± 57 pmol × mg protein^−1 × min^−1	not transported much	not transported much	391 ± 266 pmol × mg protein^−1 × min^−1								
C[C@H](N)[C@@H](O)c1ccccc1 [Cathine, (+)-norpseudoephedrine]		7 fold									4 fold		46–65%	21	10	4- to 6 fold	570.1 (± 94.3) pmol × mg protein^-1 × min^-1	46 ± 17.3	505.4 (± 168.1) pmol × mg protein^-1 × min^-1	58.4
